Patent publication US20070037883A1, “Therapeutic compositions” (priority 2003, published 2007)

Assays:
[1] = biological target: T1, gp91phox-containing NADPH-oxidase in the mouse macrophage cell line J774 (Mus musculus, UniProt Q61093); test: NADPH oxidase activity in intact J774 mouse macrophages; format: cell-based; details: FIG. 2b
T1 construct: endogenous in cells; host or cells: J774 mouse macrophage cell line (intact cells)
T1 sequence (Q61093 2-570 limits assumed): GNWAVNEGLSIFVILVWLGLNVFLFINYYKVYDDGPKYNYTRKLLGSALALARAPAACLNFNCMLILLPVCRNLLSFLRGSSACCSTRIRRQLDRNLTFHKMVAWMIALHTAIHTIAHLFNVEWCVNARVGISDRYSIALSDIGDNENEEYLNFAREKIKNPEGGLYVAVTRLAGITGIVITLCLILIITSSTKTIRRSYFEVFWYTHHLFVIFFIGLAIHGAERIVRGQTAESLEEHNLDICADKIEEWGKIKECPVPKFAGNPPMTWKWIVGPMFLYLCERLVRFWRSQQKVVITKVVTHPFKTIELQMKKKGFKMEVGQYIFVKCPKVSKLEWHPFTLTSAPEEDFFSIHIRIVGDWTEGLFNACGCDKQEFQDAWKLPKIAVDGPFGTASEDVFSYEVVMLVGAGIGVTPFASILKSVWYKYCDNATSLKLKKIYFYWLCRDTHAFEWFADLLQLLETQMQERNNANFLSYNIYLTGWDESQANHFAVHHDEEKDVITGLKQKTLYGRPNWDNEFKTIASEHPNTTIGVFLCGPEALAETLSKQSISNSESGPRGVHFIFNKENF
T1 sequence (Q61462 1-192 partner): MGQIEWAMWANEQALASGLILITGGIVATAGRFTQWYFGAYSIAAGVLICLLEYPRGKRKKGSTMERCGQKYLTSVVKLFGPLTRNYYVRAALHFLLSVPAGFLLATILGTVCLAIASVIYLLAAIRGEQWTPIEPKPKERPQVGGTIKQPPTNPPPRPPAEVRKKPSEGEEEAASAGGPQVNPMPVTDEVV

[2] = biological target: endothelial nitric oxide synthase (Homo sapiens, UniProt P29474); details: read-out: IC50, inhibition of endothelial nitric oxide synthase; Stuehr et al. 1991; Wang et al. 1993; cited from earlier work
Sequence of endothelial nitric oxide synthase (P29474 2-1203): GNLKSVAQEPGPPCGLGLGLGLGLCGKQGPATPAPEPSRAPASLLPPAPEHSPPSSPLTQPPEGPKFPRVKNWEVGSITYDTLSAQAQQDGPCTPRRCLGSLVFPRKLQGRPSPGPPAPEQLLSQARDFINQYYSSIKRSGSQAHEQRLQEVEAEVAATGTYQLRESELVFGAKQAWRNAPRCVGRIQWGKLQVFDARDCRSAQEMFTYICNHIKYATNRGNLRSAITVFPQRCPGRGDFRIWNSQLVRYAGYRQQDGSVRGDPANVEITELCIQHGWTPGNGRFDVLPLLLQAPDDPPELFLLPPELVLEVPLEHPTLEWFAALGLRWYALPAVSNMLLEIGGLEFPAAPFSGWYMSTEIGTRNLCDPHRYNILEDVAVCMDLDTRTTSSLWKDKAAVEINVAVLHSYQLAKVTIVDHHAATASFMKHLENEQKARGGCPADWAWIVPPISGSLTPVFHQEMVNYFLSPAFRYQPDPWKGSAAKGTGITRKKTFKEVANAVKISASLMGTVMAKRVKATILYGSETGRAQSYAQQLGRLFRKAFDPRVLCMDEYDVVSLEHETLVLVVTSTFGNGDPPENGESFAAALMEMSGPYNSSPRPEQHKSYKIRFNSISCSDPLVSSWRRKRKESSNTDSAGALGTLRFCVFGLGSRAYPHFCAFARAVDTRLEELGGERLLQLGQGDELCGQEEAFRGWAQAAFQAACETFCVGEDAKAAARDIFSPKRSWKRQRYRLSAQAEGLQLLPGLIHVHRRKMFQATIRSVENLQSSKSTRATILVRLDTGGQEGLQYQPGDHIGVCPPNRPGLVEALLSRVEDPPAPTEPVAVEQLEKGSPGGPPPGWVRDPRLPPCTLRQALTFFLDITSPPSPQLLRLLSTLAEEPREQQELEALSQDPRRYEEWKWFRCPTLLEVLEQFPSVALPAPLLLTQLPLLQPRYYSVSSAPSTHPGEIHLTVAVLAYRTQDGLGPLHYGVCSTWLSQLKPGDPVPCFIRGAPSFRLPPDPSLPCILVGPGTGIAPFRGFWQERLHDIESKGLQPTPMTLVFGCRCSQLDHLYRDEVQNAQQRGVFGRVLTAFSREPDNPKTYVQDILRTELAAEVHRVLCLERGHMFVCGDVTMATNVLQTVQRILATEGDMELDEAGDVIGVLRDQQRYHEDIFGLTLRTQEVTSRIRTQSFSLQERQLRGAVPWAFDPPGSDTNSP

Nox4 mRNA = Nox4 mRNA expression in cultured mouse VSMCs, real-time PCR; format: cell-based; details: 500 nmol/L oligonucleotide, 24 h, FIG. 9
Protocol: Mouse VSMCs were plated sparsely onto 96-well ViewPlates (Packard Bioscience) (for superoxide measurements) or onto 35 mm culture dishes (for RNA extraction) such that they were 30-50% confluent at the time of transfection 24 h later. At the time of transfection, cells were washed with serum- and antibiotic free DMEM and were then incubated in serum- and antibiotic-free DMEM containing 8 μL/mL Oligofectamine Transfection Reagent (Invitrogen Life Technologies) complexed with the antisense (0-1000 nmol/L), mismatch (500 nmol/L) or scrambled (560 nmol/L) oligonucleotides. […]
RNA was extracted from cultured and freshly isolated mouse VSMCs, and from freshly isolated whole aortas using RNAwiz (Ambion) according to the manufacturer's protocol. RNA concentrations were determined spectrophotometrically by measuring absorbance at 260 nm. […]
Real-time PCR and the ΔΔCt method were used as previously described to examine mRNA expression of Nox4 and Nox1 relative to a “reference” sample. […] 18S ribosomal RNA was used as the internal standard for each reaction and was detected with commercially available rodent 18S primers and a 5′-VIC-labeled probe (PE Biosystems; Table 7).
Nox4 was amplified in duplex with 18S in PCR mixtures (25 μL final volume) containing 1× TaqMan (registered trademark). […] Reactions were performed and fluorescence monitored in the ABI Prism 7700 Sequence Detector (PE Biosystems).

Compound	reduction in Nox4 mRNA expression (Nox4 mRNA)	also measured
1-amino-4[[4[[4-chloro-6-[[n-sulfophenyl]amino]-1,3,5-triazin-2-yl]amino]-3-sulfophenyl]amino]-9,10-dihydro-9,10-dioxo-2-anthracene-sulfonic acid wherein n is 3 or 4 [Reactive blue-2]	–	effect on gp91phox-containing NADPH-oxidase in J774 macrophages / phagocytic cells [1]: ineffective
c1ccc2c(c1)[I+]c1ccccc1-2 [DPI, diphenyleneiodonium]	–	IC50 [2]: 180 to 300 nM
+13/+33 mismatch: mismatch control oligonucleotide TAGGCCAGCAAGCTCCTACA [SEQ ID NO:18], differs in three base positions (chemistry not given here)	no effect	–
+13/+33 scrambled: scrambled control oligonucleotide CGTCACGCTCAGCTCACCGT [SEQ ID NO:19], same base composition in random order (chemistry not given here)	no effect	–
